Data taken from patent US12006553B2, “Companion diagnostics for mitochondrial inhibitors” (priority 2017, dated 2024).

What was measured:
[1] = test system: DoxyR-CSCs (Doxy-resistant (DoxyR)-MCF7 cells); assay: Sensitivity of Doxy-resistant CSCs to other metabolic therapies; type: cell-based
Description: One concern with doxycycline therapy is the potential for the development of drug-resistance in CSCs. To investigate this issue, the inventors developed and characterized the phenotypic behavior of Doxy-resistant (DoxyR)-MCF7 cells.

cancer stem cells (CSCs) = assay: CSC propagation / 3D spheroid (mammosphere) formation on low-attachment plates; type: cell-based; details: for IC50: CSCs, read-out: IC-50 for inhibition of CSC propagation; for inhibition of CSC propagation / 3D spheroid formation (in words): anchorage-independent growth
Description: Because CSCs are relatively “rare”, little is known about their metabolic properties. […] Under such conditions, the majority (more than 90%) of “bulk” cancer cells die via apoptosis, while only the CSCs survive and propagate, ultimately resulting in the formation of 3D spheroid structures after about 5 days. Each 3D spheroid is clonally formed from a single CSC. For breast CSCs, these 3D spheroids are also known as tumor-spheres or mammospheres. The generation of these 3D spheroids is thought to mimic the process of tumor formation and/or metastasis, thus providing a model for drug discovery and functional validation.

[2] = test system: HMGR (3-hydroxy-3-methylglutaryl-CoA-reductase); assay: Inhibition of mevalonate metabolism; details: statin-like

CCN(CC)CCCC(C)Nc1ccnc2cc(Cl)ccc12 (centres unmarked) [Chloroquine]
sensitivity of DoxyR-CSCs to the drug [1]: sensitive

[Cl-].c1ccc2c(c1)[I+]c1ccccc1-2 [DPI, diphenyleneiodium chloride]
IC50 (cancer stem cells (CSCs)): ~3 nM
potency for targeting CSCs relative to Palbociclib (cancer stem cells (CSCs); versus Palbociclib): approximately 30 times

CCc1c2c(nc3ccc(OC(=O)N4CCC(N5CCCCC5)CC4)cc13)-c1cc3c(c(=O)n1C2)COC(=O)[C@]3(O)CC [Irinotecan]
sensitivity of DoxyR-CSCs to the drug [1]: sensitive

O=C(Nc1ccc([N+](=O)[O-])cc1Cl)c1cc(Cl)ccc1O [Niclosamide]
sensitivity of DoxyR-CSCs to the drug [1]: sensitive

CC(=O)c1c(C)c2cnc(Nc3ccc(N4CCNCC4)cn3)nc2n(C2CCCC2)c1=O [Palbociclib]
IC50 (cancer stem cells (CSCs)): ~100 nM

CNC(=O)c1cc(Oc2ccc(NC(=O)Nc3ccc(Cl)c(C(F)(F)F)c3)cc2)ccn1 [Sorafenib]
sensitivity of DoxyR-CSCs to the drug [1]: sensitive

CC(C)(C)C(O)/C=C/c1ccc2c(c1)OCO2 (centres unmarked) [Stiripentol]
sensitivity of DoxyR-CSCs to the drug [1]: sensitive

O=C1O[C@H]([C@@H](O)CO)C(O)=C1O [Vitamin C]
sensitivity of DoxyR-CSCs to the drug [1]: sensitive

COc1ccc([C@@H]2CC(=O)c3c(O)cc(O[C@@H]4O[C@H](COC(=O)CC(C)(O)CC(=O)O)[C@@H](O)[C@H](O)[C@H]4O[C@@H]4O[C@@H](C)[C@H](O)[C@@H](O)[C@H]4O)cc3O2)cc1O (some centres unmarked) [brutieridin]
inhibition of CSC propagation / 3D spheroid formation (in words) (cancer stem cells (CSCs)): inhibit
inhibition of mevalonate metabolism [2]: inhibit

C[C@@H]1O[C@@H](O[C@@H]2[C@@H](Oc3cc(O)c4c(c3)O[C@H](c3ccc(O)cc3)CC4=O)O[C@@H](COC(=O)C[C@@](C)(O)CC(=O)O)[C@H](O)[C@H]2O)[C@@H](O)[C@H](O)[C@H]1O [melitidin]
inhibition of CSC propagation / 3D spheroid formation (in words) (cancer stem cells (CSCs)): inhibit
inhibition of mevalonate metabolism [2]: inhibit

CC[C@H]1/C=C/C=C/C[C@@H](C)[C@H](O)[C@@](C)(O)C(=O)[C@@H](C)[C@H](O)[C@@H](C)C(=O)[C@@H](C)[C@H](O)[C@@H](C)/C=C/C(=O)O[C@@H]2[C@H](C)[C@H](CC1)O[C@]1(CC[C@H](C)[C@H](C[C@@H](C)O)O1)[C@H]2C [oligomycin]
inhibition of CSC propagation / 3D spheroid formation (in words) (cancer stem cells (CSCs)): effectively blocked
